Measurements taken from patent publication US20100143265A1, “SYSTEM AND METHOD FOR THE DELIVERY OF A SANITIZING FOAM” (GREEN SOURCE AUTOMATED, LLC, priority 2008, published 2010).

Experiment: Gas solubility in water / dip solution
Assay type: physicochemical
Settings: standard room temperature and 100 psi pressure
Experimental: Carbon dioxide (CO2) is soluble in water up to 1.45 g/L at 25° C. and 100 kPa. The amount of CO2 that can be dissolved into the dip solution is dependent on the temperature and pressure of the solution. The lower the temperature of the solution the less pressure that is required to saturate the solution with CO2. Conversely, the higher the temperature of the dip solution the more pressure that is required to saturate the solution with CO2.
The system (FIG. 3) was used with nitrous oxide as the propellant/diffusion gas. In an embodiment of the invention, nitrous oxide (N2O) can be used as a propellant/diffusion. N2O is partially soluble in water, but is almost completely soluble in fats and oils (the skin conditioner provided in the cow dip). Under standard room temperature and 100 psi pressure, approximately four volumes of N2O can be dissolved in one volume of the dip solution. The resulting nitrous oxide foam expands to approximately 6 mm in diameter, where the individual bubbles in the foam vary in size from approximately 1 micron to approximately 10 microns. After coalescing, the remaining liquid dries on the teat. It is noted that the amount of N2O that can be dissolved in one volume of dip solution will increase if more conditioners (containing one or more of fats, oils, fatty acids and triglycerides) are used since N2O is almost completely soluble in fats and oils. […]

Structure (SMILES) | volumes dissolved (gas and dip solution)
O=C=O [CO2, Carbon dioxide] | approximately 4.5 volumes
[N-]=[N+]=O [Example N2O, nitrous oxide] | approximately four
